Values quoted from earlier work, collected in US8772510B2, “PDE10 modulators” (Hoffmann-La Roche Inc., priority 2011, dated 2014).

Target: PDE10A (Rattus norvegicus (Rat), UniProt Q9QYJ6)
Settings: rats, sub-chronic treatment with PCP; Rodefer et al. 2005

Sequence of PDE10A (Q9QYJ6 whole entry): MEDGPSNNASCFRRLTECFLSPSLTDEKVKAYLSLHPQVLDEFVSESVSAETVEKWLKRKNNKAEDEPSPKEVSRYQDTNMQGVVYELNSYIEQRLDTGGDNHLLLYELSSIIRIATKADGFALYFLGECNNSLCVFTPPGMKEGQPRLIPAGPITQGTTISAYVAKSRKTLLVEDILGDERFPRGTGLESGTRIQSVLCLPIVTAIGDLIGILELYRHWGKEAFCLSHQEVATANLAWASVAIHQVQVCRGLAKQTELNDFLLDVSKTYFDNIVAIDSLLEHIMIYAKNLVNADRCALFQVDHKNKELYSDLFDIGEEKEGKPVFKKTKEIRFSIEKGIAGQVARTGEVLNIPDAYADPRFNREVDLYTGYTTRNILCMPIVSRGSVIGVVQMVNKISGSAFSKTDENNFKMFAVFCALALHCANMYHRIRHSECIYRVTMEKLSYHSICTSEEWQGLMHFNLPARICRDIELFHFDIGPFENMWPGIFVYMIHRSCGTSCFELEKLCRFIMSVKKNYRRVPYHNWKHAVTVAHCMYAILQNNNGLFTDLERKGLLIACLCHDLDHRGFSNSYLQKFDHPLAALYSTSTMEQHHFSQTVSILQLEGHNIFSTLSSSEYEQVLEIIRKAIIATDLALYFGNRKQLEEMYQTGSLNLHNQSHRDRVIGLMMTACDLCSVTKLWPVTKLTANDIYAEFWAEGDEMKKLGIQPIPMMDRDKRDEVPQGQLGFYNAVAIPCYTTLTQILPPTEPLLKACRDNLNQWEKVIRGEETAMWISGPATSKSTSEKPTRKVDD

Which “deficits in extra-dimensional shift learning” value does the source give for `COc1ccc(Cc2nccc3cc(OC)c(OC)cc23)cc1OC` [papaverine, Papaverine] here?
Its value is “attenuate the deficits in the extra-dimensional shift learning”.
